Values quoted from earlier work, collected in US20230037660A1, “METHODS OF TREATING VASCULAR LESIONS AND MALFORMATIONS” (priority 2019, published 2023).

Test system: diseased tissue / blood vessels
Conditions: ICG alone, not conjugated

For CC1(C)C(/C=C/C=C/C=C/C=C2\N(CCCCS(=O)(=O)O)c3ccc4ccccc4c3C2(C)C)=[N+](CCCCS(=O)(=O)[O-])c2ccc3ccccc3c21 [ICG, indocyanine green], the “Fluorescence behaviour of the dye alone after injection” value is listed as “transiently lights up blood vessels immediately after injection”.
